Measured values: ChEMBL document CHEMBL5107958, “Phosphoramidate Prodrugs Continue to Deliver, The Journey of Remdesivir (GS-5734) from RSV to SARS-CoV-2” (ACS Med Chem Lett, 2022)

Tests used:
Hepatitis C virus [1] = assay: Antiviral activity against HCV assessed as reduction in viral replication by measuring parent nucleoside compound; format: functional, organism-based, Hepacivirus hominis
Hepatitis C virus [2] = assay: Antiviral activity against HCV assessed as reduction in viral replication by measuring monophosphate prodrug metabolite; format: functional, organism-based, Hepacivirus hominis
Ebolavirus [3] = assay: Antiviral activity against Ebola infected in human macrophages assessed as reduction in viral replication; format: functional, organism-based; conditions: Orthoebolavirus, Macrophage
Ebolavirus [4] = assay: Antiviral activity against Ebola infected in human HeLa cells assessed as reduction in viral replication; format: functional, organism-based; conditions: Orthoebolavirus
Marburgvirus = assay: Antiviral activity against MARV Rec. Bat371-GFP infected in human Huh-7 cells assessed as reduction in viral replication incubated for 48 to 144 hrs by fluorescence based assay; format: functional, organism-based; conditions: Orthomarburgvirus
Nipah virus [5] = assay: Antiviral activity against Nipah M1999 infected in human HeLa cells assessed as reduction in viral replication incubated for 48 to 144 hrs by reporter virus assay; format: functional, organism-based; conditions: Henipavirus nipahense
Nipah virus [6] = assay: Antiviral activity against Nipah B2004 infected in human NCI-H358 cells assessed as reduction in viral replication incubated for 48 to 144 hrs by reporter virus assay; format: functional, organism-based; conditions: Henipavirus nipahense
Measles morbillivirus [7] = assay: Antiviral activity against Measles Rec.rMVEZGFP(3) infected in human HeLa cells assessed as reduction in viral replication incubated for 48 to 144 hrs by fluorescence based assay; format: functional, organism-based
Measles morbillivirus [8] = assay: Antiviral activity against Measles virus infected in HMVEC cells assessed as reduction in viral replication; format: functional, organism-based
SARS-CoV = assay: Antiviral activity against SARS-CoV infected in HAE cells assessed as reduction in viral replication at MOI of 0.5 preincubated for 3 hrs followed by virus removal measured after 48 hrs by Hoechst 33258 staining based assay; format: functional, organism-based; conditions: Severe acute respiratory syndrome-related coronavirus
SARS-CoV-2 [9] = assay: Antiviral activity against SARS-CoV-2 infected in human A549 cells expressing hACE2 assessed as reduction in viral replication at MOI of 0.025 incubated for 48 hrs by luciferase based assay; format: functional, organism-based; conditions: Severe acute respiratory syndrome coronavirus 2, A549, 48 h
SARS-CoV-2 [10] = assay: Antiviral activity against SARS-CoV-2 infected in human Huh-7 cells assessed as reduction in virus-induced cytopathic effect at MOI of 0.0037 measured after 4 days by MTS assay; format: functional, organism-based; conditions: Severe acute respiratory syndrome coronavirus 2, Huh-7, 96 h
SARS-CoV-2 [11] = assay: Antiviral activity against SARS-CoV-2 infected in African green monkey Vero E6 cells assessed as reduction in viral replication; format: functional, organism-based; conditions: Severe acute respiratory syndrome coronavirus 2, Vero C1008
SARS-CoV-2 [12] = assay: Antiviral activity against SARS-CoV-2 infected in human Caco-2 cells assessed as reduction in viral replication at MOI of 0.01 measured after 72 hrs by qRT-PCR analysis; format: functional, organism-based; conditions: Severe acute respiratory syndrome coronavirus 2, Caco-2, 72 h
SARS-CoV-2 [13] = assay: Antiviral activity against SARS-CoV-2 infected in human Calu-3 cells assessed as reduction in viral replication at MOI of 0.01 measured after 72 hrs by qRT-PCR analysis; format: functional, organism-based; conditions: Severe acute respiratory syndrome coronavirus 2, Calu-3, 72 h
SARS-CoV-2 [14] = assay: Antiviral activity against SARS-CoV-2 infected in human Calu-3 2B4 cells assessed as reduction in viral replication at MOI of 0.01 preincubated for 2 hrs followed by viral infection for 30 mins and subsequent virus removal and addition of medium containing compound measured after 72 hrs by RT-qPCR analysis; format: functional, organism-based; conditions: Severe acute respiratory syndrome coronavirus 2, Calu-3 2B4
SARS-CoV-2 [15] = assay: Antiviral activity against SARS-CoV-2 infected in human PSC-derived lung epithelial cells assessed as reduction in viral replication; format: functional, organism-based; conditions: Severe acute respiratory syndrome coronavirus 2, Epithelial cell
[16] = tested on: Middle East respiratory syndrome-related coronavirus; assay: Antiviral activity against MERS-CoV infected in HAE cells assessed as reduction in viral replication at MOI of 0.5 incubated for 3 hrs followed by virus removal measured after 48 hrs by Hoechst 33258 staining based assay; format: functional, organism-based
[17] = AUC (0 to infinity) in overnight fasted dog at 100 mg/kg, po measured upto 24 hrs; format: ADME, organism-based, Canis lupus familiaris; set-up: dose 100 mg/kg, time < 24 hrs, route po; conditions: in vivo
[18] = Prodrug conversion in overnight fasted dog assessed as AUC (0 to last) of parent nucleoside compound at 100 mg/kg, po measured upto 24 hrs; format: ADME, organism-based, Canis lupus familiaris; set-up: dose 100 mg/kg, time < 24 hrs, route po; conditions: in vivo
[19] = AUC (0 to infinity) in cynomolgus monkey at 5 mg/kg, po measured for 0.25 to 4 hrs post-administration; format: ADME, organism-based, Macaca fascicularis; set-up: time upper 4 hrs, dose 5 mg/kg, time lower 0.25 hrs, route po; conditions: in vivo
[20] = Prodrug conversion in cynomolgus monkey assessed as AUC (0 to last) of parent nucleoside compound at 5 mg/kg, po measured for 0.25 to 4 hrs post-administration; format: ADME, organism-based, Macaca fascicularis; set-up: time lower 0.25 hrs, dose 5 mg/kg, time upper 4 hrs, route po; conditions: in vivo
[21] = AUC (0 to infinity) in dog at 5 mg/kg, po via gavage measured for 0.25 to 24 hrs post-administration; format: ADME, organism-based, Canis lupus familiaris; set-up: dose 5 mg/kg, time upper 24 hrs, time lower 0.25 hrs, route po; conditions: in vivo
[22] = Prodrug conversion in dog assessed as AUC (0 to last) of parent nucleoside compound at 5 mg/kg, po via gavage measured for 0.25 to 24 hrs post-administration; format: ADME, organism-based, Canis lupus familiaris; set-up: time upper 24 hrs, time lower 0.25 hrs, dose 5 mg/kg, route po; conditions: in vivo
[23] = Half life in Beagle dog at 0.5 mg/kg, iv measured for 0.08 to 24 hrs post-dose; format: ADME, organism-based, Canis lupus familiaris; conditions: in vivo, time 0.08-24 hrs
[24] = Volume of distribution at steady state in Beagle dog at 0.5 mg/kg, iv measured for 0.08 to 24 hrs post-dose; format: ADME, organism-based, Canis lupus familiaris; conditions: in vivo, time 0.08-24 hrs, read-out: Vdss
[25] = AUC (0 to infinity) in Beagle dog at 0.5 mg/kg, iv measured for 0.08 to 24 hrs post-dose; format: ADME, organism-based, Canis lupus familiaris; set-up: dose 0.5 mg/kg, time upper 24 hrs, time lower 0.08 hrs, route iv; conditions: in vivo
[26] = AUC (0 to infinity) in Beagle dog at 3 mg/kg, po via gavage measured for 0.08 to 24 hrs post-dose; format: ADME, organism-based, Canis lupus familiaris; set-up: time lower 0.08 hrs, dose 3 mg/kg, time upper 24 hrs, route po; conditions: in vivo
[27] = Oral bioavailability in Beagle dog at 3 mg/kg administered via gavage measured for 0.08 to 24 hrs post-dose; format: ADME, organism-based, Canis lupus familiaris; conditions: in vivo, time 0.08-24 hrs
[28] = AUC (0 to infinity) in cynomolgus monkey at 30 mg/kg, po; format: ADME, organism-based, Macaca fascicularis; set-up: time infinity, dose 30 mg/kg, route po; conditions: in vivo
[29] = Prodrug conversion in cynomolgus monkey assessed as AUC (0 to last) of parent nucleoside compound at 30 mg/kg, po; format: ADME, organism-based, Macaca fascicularis; set-up: time 0 - last, dose 30 mg/kg, route po; conditions: in vivo
[30] = Prodrug conversion in cynomolgus monkey lung assessed as triphosphate metabolite formation at 30 mg/kg, po measured after 24 hrs; format: ADME, organism-based, Macaca fascicularis; conditions: in vivo
Hepatitis C virus [31] = assay: Antiviral activity against HCV infected in human Huh-7 cells expressing Ces1 assessed as reduction in viral replication by measuring monophosphate prodrug metabolite; format: functional, organism-based, Hepacivirus hominis

## CNc1nc(N)nc2c1ncn2[C@@H]1O[C@H](COP(=O)(N[C@@H](C)C(=O)OC(C)C)Oc2ccccc2)[C@@H](O)[C@@]1(C)F (stereo not given in full) [BEMNIFOSBUVIR]
Hepatitis C virus [1]
  EC50: 69000 nM
Hepatitis C virus [2]
  EC50: 13 nM

## CC(C)OC(=O)[C@H](C)N[P@](=O)(OC[C@H]1O[C@@](C#N)(c2cnc3c(N)ncnn23)[C@](C)(O)[C@@H]1OC(=O)C(C)C)Oc1ccccc1
Hepatitis C virus [1]
  EC50: > 89000 nM
Hepatitis C virus [2]
  EC50: 460 nM

## N#C[C@@]1(c2ccc3c(N)ncnn23)O[C@H](CO)[C@@H](O)[C@H]1O [GS-441524]
Ebolavirus [3]
  EC50: > 20000 nM
Ebolavirus [4]
  EC50: > 20000 nM
Marburgvirus
  EC50: 1900 nM
Nipah virus [5]
  EC50: 2120 nM
Nipah virus [6]
  EC50: 2460 nM
Measles morbillivirus [7]
  EC50: 1000 nM
Measles morbillivirus [8]
  EC50: 770 nM
SARS-CoV
  EC50: 180 nM
SARS-CoV-2 [9]
  EC50: 869 nM
SARS-CoV-2 [10]
  EC50: 1100 nM
SARS-CoV-2 [11]
  EC50: 470 nM
SARS-CoV-2 [12]
  EC50: 80 nM
SARS-CoV-2 [13]
  EC50: 250 nM
SARS-CoV-2 [14]
  EC50: 620 nM
SARS-CoV-2 [15]
  EC50: 740 nM
[16]
  EC50: 860 nM

## COC(=O)[C@H](C)NP(=O)(OC[C@@H]1C=C[C@H](n2cc(C)c(=O)[nH]c2=O)O1)Oc1ccc(Br)cc1 (stereo not given in full)
[17]
  AUC(0-inf): 23.1 µM·h
[18]
  AUClast: 262 µM·h

## CC(C)OC(=O)[C@H](C)N[P@](=O)(OC[C@H]1O[C@@H](n2ccc(=O)[nH]c2=O)[C@@](C)(F)[C@@H]1O)Oc1ccccc1
Hepatitis C virus [1]
  EC50: > 50000 nM
Hepatitis C virus [2]
  EC50: 420 nM
[19]
  AUC(0-inf): 0.16 µM·h
[20]
  AUClast: 0.12 µM·h
[21]
  AUC(0-inf): 0.78 µM·h
[22]
  AUClast: 27 µM·h

## CCOC(=O)[C@H](C)N[P@@]1(=O)OC[C@H]2O[C@@H](n3cnc4c(OCC)nc(N)nc43)[C@](C)(F)[C@@H]2O1
[23]
  half-life: 18 min
[24]
  Vd: 0.5 L/kg
[25]
  AUC(0-inf): 0.61 µM·h
[26]
  AUC(0-inf): 1.6 µM·h
[27]
  bioavailability: 44%

## CNc1nc(N)nc2c1ncn2[C@@H]1O[C@H](CO[P@@](=O)(N[C@@H](C)C(=O)OC(C)C)Oc2ccccc2)[C@@H](O)[C@@]1(C)F [BEMNIFOSBUVIR]
[28]
  AUC(0-inf): 0.44 µM·h
[29]
  AUClast: 1.56 µM·h
[30]
  Drug metabolism: 0.14 nmol/g

## COc1nc(N)nc2c1ncn2[C@@H]1O[C@H](COP(=O)(N[C@@H](C)C(=O)OCC(C)(C)C)Oc2cccc3ccccc23)[C@@H](O)[C@@]1(C)O (stereo not given in full) [BMS-986094]
Hepatitis C virus [1]
  EC50: 3500 nM
Hepatitis C virus [2]
  EC50: 35 nM
[28]
  AUC(0-inf): 0.026 µM·h

## CC(C)OC(=O)[C@@H](C)N[P@@](=O)(OC[C@H]1O[C@@H](n2ccc(=O)[nH]c2=O)[C@](C)(Cl)[C@@H]1O)Oc1ccccc1 [UPRIFOSBUVIR]
Hepatitis C virus [31]
  EC50: 320 nM
